“Also recorded” adds a separate entry of the source.
Tested on: HT29 cells
Assay type: cell-based, human

CCC(=C/[C@H](C)C/C=C/C(C)=C/[C@@H](C)C(=O)[C@@H](C)[C@H](O)[C@@H](C)C/C(C)=C/C(=O)O)/C=C/[C@@H]1OC(=O)C=C[C@@H]1C [Leptomycin B]
cell killing ability of MYXV: further enhanced the cell killing ability of MYXV
cell viability (ATP), Leptomycin B pretreatment plus MYXV: further reduced the viability; also recorded: reduced cell viability
cell viability (ATP) (64 h): sensitive to Leptomycin B treatment alone

Source: patent US12691151B2, “Methods and compositions for improving oncolytic virus infection for nonpermissive cancers” (Arizona Board of Regents on behalf of Arizona State …, priority 2019, dated 2026)
